Data published in patent US20140363454A1, “Antibody-Drug Conjugates, Compositions and Methods of Use” (Igenica Biotherapeutics, Inc., priority 2013, published 2014).
Where two headings read alike, the source gives them in different places. Where a SMILES comes first, the peptide text is derived from it. [ ]: non-standard residue; d: D form. Dolaproine = CO[C@@H]([C@@H]1CCCN1)[C@@H](C)C(=O)O; Dil = CC[C@H](C)[C@H](NC)[C@@H](CC(=O)O)OC; NMeV = CN[C@H](C(=O)O)C(C)C

Tested on: BT474 (HER2+) cell line
Test: Standard cellular cytotoxicity assay, BT474 (HER2+) cell line
Type: cell-based, human
From the text: The cytotoxicity of tubulysins T1 and T2 was compared to the cytotoxicity of MMAF using the BT474 (HER2+) cell line in a standard cellular cytotoxicity assay.

## CC[C@H](C)[C@H](NC(=O)[C@H]1CCCCN1C)C(=O)N(C)[C@H](C[C@@H](OC(C)=O)c1nc(C(=O)O)cs1)C(C)C [Entry T1]
Homo sapiens, BT-474
  IC50: 11 nM

## CC[C@H](C)[C@H](NC(=O)[C@H]1CCCCN1C)C(=O)N(C)[C@H](C[C@@H](OC(C)=O)c1nc(C(=O)N[C@@H](Cc2ccccc2)C[C@H](C)C(=O)O)cs1)C(C)C [Entry T2]
Homo sapiens, BT-474
  IC50: < 0.1 nM

## CC[C@H](C)[C@@H]([C@@H](CC(=O)N1CCC[C@H]1[C@H](OC)[C@@H](C)C(=O)N[C@@H](Cc1ccccc1)C(=O)O)OC)N(C)C(=O)[C@@H](NC(=O)[C@@H](NC)C(C)C)C(C)C [MMAF, monomethylauristatin F] (H-[NMeV]V[Dil][Dolaproine]F-OH)
  IC50: 93 nM
